{
  "source": "the supplement of paper PMC10307832",
  "assay_in_all_cases": "relative viability (nuclei count vs DMSO), 5 days (fraction); higher = more cells survive",
  "key": {"[1]": {"compound": "C1CN(CCN1)C2=CC=C(C=C2)C3=CN4C(=C(C=N4)C5=CC=NC6=CC=CC=C56)N=C3 [DM3189]", "method_in_brief": "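Hoechst staining, done together with fixation and permeabilisation, marked nuclei for 4× imaging and MetaXpress counting. This followed 5 days without medium change after lung cancer cell lines, kept overnight at 37 °C in 1536-well plates, were pinned with five library-drug doses (not always all listed) spaced by √10 on vehicle-anchored plates. Viability is the ratio of treated-well to vehicle-well nuclei, expressed as a median across plates. Plates passed only at control CV below 25% with at least one doubling.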"}, "[2]": {"compound": "C1CN(CCN1)C2=CC=C(C=C2)C3=CN4C(=C(C=N4)C5=CC=NC6=CC=CC=C56)N=C3 [DM3189] + O=C(c1cc(Cc2n[nH]c(=O)c3ccccc23)ccc1F)N1CCN(C(=O)C2CC2)CC1 [Olaparib] (partner 8 µM)", "method_in_brief": "(§1)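 Medians of duplicate plates are given as relative viability. That measure is the nuclei count in treated wells divided by the count in vehicle wells. Counts were taken on 4× images of lung cancer cell lines in 1536-well plates, 5 days after pin-tool dosing the day after seeding with one drug alone or a fixed anchor-drug dose plus five library-drug doses (not always all listed) in √10 steps.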"}, "[3]": {"compound": "C1CN(CCN1)C2=CC=C(C=C2)C3=CN4C(=C(C=N4)C5=CC=NC6=CC=CC=C56)N=C3 [DM3189] + CS(=O)(=O)N1CCN(Cc2cc3nc(-c4cccc5[nH]ncc45)nc(N4CCOCC4)c3s2)CC1 [Pictilisib] (partner 1 µM)", "method_in_brief": "as §1"}, "[4]": {"compound": "C1CN(CCN1)C2=CC=C(C=C2)C3=CN4C(=C(C=N4)C5=CC=NC6=CC=CC=C56)N=C3 [DM3189] + COc1cc2c(Oc3ccc(NC(=O)C4(C(=O)Nc5ccc(F)cc5)CC4)cc3F)ccnc2cc1OCCCN1CCOCC1 [Foretinib] (partner 0.25 µM)", "method_in_brief": "as §1"}, "[5]": {"compound": "C1CN(CCN1)C2=CC=C(C=C2)C3=CN4C(=C(C=N4)C5=CC=NC6=CC=CC=C56)N=C3 [DM3189] + CC1(C)CCC(c2ccc(Cl)cc2)=C(CN2CCN(c3ccc(C(=O)NS(=O)(=O)c4ccc(N[C@H](CCN5CCOCC5)CSc5ccccc5)c(S(=O)(=O)C(F)(F)F)c4)cc3)CC2)C1 [Navitoclax] (partner 0.5 µM)", "method_in_brief": "as §1"}, "[6]": {"compound": "C1CN(CCN1)C2=CC=C(C=C2)C3=CN4C(=C(C=N4)C5=CC=NC6=CC=CC=C56)N=C3 [DM3189] + CS(=O)(=O)CCNCc1ccc(-c2ccc3ncnc(Nc4ccc(OCc5cccc(F)c5)c(Cl)c4)c3c2)o1 [Lapatinib] (partner 2 µM)", "method_in_brief": "as §1"}, "[7]": {"compound": "C1CN(CCN1)C2=CC=C(C=C2)C3=CN4C(=C(C=N4)C5=CC=NC6=CC=CC=C56)N=C3 [DM3189] + Cc1nc(NC(=O)N2CCC[C@H]2C(N)=O)sc1-c1ccnc(C(C)(C)C(F)(F)F)c1 [Alpelisib] (partner 2 µM)", "method_in_brief": "as §1"}, "[8]": {"compound": "C1CN(CCN1)C2=CC=C(C=C2)C3=CN4C(=C(C=N4)C5=CC=NC6=CC=CC=C56)N=C3 [DM3189] + C[C@]1(O)C[C@@H](c2nc(-c3ccc4ccc(-c5ccccc5)nc4c3)c3c(N)nccn32)C1 [Linsitinib] (partner 1 µM)", "method_in_brief": "as §1"}, "[9]": {"compound": "C1CN(CCN1)C2=CC=C(C=C2)C3=CN4C(=C(C=N4)C5=CC=NC6=CC=CC=C56)N=C3 [DM3189] + CC(C)C[C@H](NC(=O)[C@H](Cc1ccccc1)NC(=O)c1cnccn1)B(O)O [Bortezomib] (partner 0.002 µM)", "method_in_brief": "as §1"}, "[10]": {"compound": "C1CN(CCN1)C2=CC=C(C=C2)C3=CN4C(=C(C=N4)C5=CC=NC6=CC=CC=C56)N=C3 [DM3189] + C[C@@H](Oc1cc(-c2cnn(C3CCNCC3)c2)cnc1N)c1c(Cl)ccc(F)c1Cl [Crizotinib] (partner 1 µM)", "method_in_brief": "as §1"}},
  "data": [
    {"cell line": "NCI-H1299", "values": [
      {"measurement": "relative viability", "setting": "[1]; 0.08 µM", "result": 0.967},
      {"measurement": "relative viability", "setting": "[1]; 0.253 µM", "result": 0.987},
      {"measurement": "relative viability", "setting": "[1]; 0.8 µM", "result": 0.976},
      {"measurement": "relative viability", "setting": "[1]; 2.53 µM", "result": 1.04},
      {"measurement": "relative viability", "setting": "[2]; first compound 0.08 µM", "result": 0.963},
      {"measurement": "relative viability", "setting": "[2]; first compound 0.253 µM", "result": 0.922},
      {"measurement": "relative viability", "setting": "[2]; first compound 0.8 µM", "result": 0.753},
      {"measurement": "relative viability", "setting": "[2]; first compound 2.53 µM", "result": 1.05},
      {"measurement": "relative viability", "setting": "[3]; first compound 0.08 µM", "result": 0.911},
      {"measurement": "relative viability", "setting": "[3]; first compound 0.253 µM", "result": 0.776},
      {"measurement": "relative viability", "setting": "[3]; first compound 0.8 µM", "result": 0.59},
      {"measurement": "relative viability", "setting": "[3]; first compound 2.53 µM", "result": 0.495},
      {"measurement": "relative viability", "setting": "[4]; first compound 0.08 µM", "result": 1.09},
      {"measurement": "relative viability", "setting": "[4]; first compound 0.253 µM", "result": 0.996},
      {"measurement": "relative viability", "setting": "[4]; first compound 0.8 µM", "result": 1.06},
      {"measurement": "relative viability", "setting": "[4]; first compound 2.53 µM", "result": 1.08},
      {"measurement": "relative viability", "setting": "[5]; first compound 0.08 µM", "result": 1.03},
      {"measurement": "relative viability", "setting": "[5]; first compound 0.253 µM", "result": 0.985},
      {"measurement": "relative viability", "setting": "[5]; first compound 0.8 µM", "result": 1.02},
      {"measurement": "relative viability", "setting": "[5]; first compound 2.53 µM", "result": 1.03},
      {"measurement": "relative viability", "setting": "[6]; first compound 0.08 µM", "result": 1.01},
      {"measurement": "relative viability", "setting": "[6]; first compound 0.253 µM", "result": 0.926},
      {"measurement": "relative viability", "setting": "[6]; first compound 0.8 µM", "result": 0.899},
      {"measurement": "relative viability", "setting": "[6]; first compound 2.53 µM", "result": 0.94},
      {"measurement": "relative viability", "setting": "[7]; first compound 0.08 µM", "result": 1.09},
      {"measurement": "relative viability", "setting": "[7]; first compound 0.253 µM", "result": 1.07},
      {"measurement": "relative viability", "setting": "[7]; first compound 0.8 µM", "result": 0.968},
      {"measurement": "relative viability", "setting": "[7]; first compound 2.53 µM", "result": 1.15},
      {"measurement": "relative viability", "setting": "[8]; first compound 0.08 µM", "result": 0.998},
      {"measurement": "relative viability", "setting": "[8]; first compound 0.253 µM", "result": 1.01},
      {"measurement": "relative viability", "setting": "[8]; first compound 0.8 µM", "result": 0.958},
      {"measurement": "relative viability", "setting": "[8]; first compound 2.53 µM", "result": 1.06},
      {"measurement": "relative viability", "setting": "[9]; first compound 0.08 µM", "result": 1.06},
      {"measurement": "relative viability", "setting": "[9]; first compound 0.253 µM", "result": 1.01},
      {"measurement": "relative viability", "setting": "[9]; first compound 0.8 µM", "result": 1.01},
      {"measurement": "relative viability", "setting": "[9]; first compound 2.53 µM", "result": 1.01},
      {"measurement": "relative viability", "setting": "[10]; first compound 0.08 µM", "result": 0.99},
      {"measurement": "relative viability", "setting": "[10]; first compound 0.253 µM", "result": 0.914},
      {"measurement": "relative viability", "setting": "[10]; first compound 0.8 µM", "result": 0.924},
      {"measurement": "relative viability", "setting": "[10]; first compound 2.53 µM", "result": 0.983}
    ]}
  ]
}
